# Laboratory results from paper PMC12571071, “Preventing neuropathy and improving anticancer chemotherapy with a carbazole-based compound” (Science Advances, 2025).
# Like-named read-outs stand apart in the source and are kept apart here.
# Experiments:
# HeLa cells [1] = assay: HeLa cell viability (PrestoBlue) assay, 72 h; type: cell-based, human; details: HeLa cells; for GI50: Homo sapiens
# Procedure: The human HeLa cell line was tested negative for mycoplasma contamination. HeLa cells were grown in RPMI 1640 medium supplemented with penicillin/streptomycin (100 μg/ml) and 10% FBS and maintained in a humidified incubator at 37°C and 5% CO2.
# Cell viability was analyzed using the colorimetric PrestoBlue assay. Cells were seeded in 96-well microplates at a density of 7500 cells per well, allowed to adhere for 24 hours, and treated for 72 hours with either DMSO or drugs at indicated concentrations. PrestoBlue (10 μl) was then added to each well, followed by a 30-min incubation. Fluorescence was measured using a FLUOstar Optima microplate reader (excitation, 544 nm; emission, 580 nm; BMG Labtech).
# carbonic anhydrase (CA) = assay: AS-MS binding assay, carbonic anhydrase (negative control); details: 10 μM compound, 3 μM carbonic anhydrase
# Procedure: (§1) To this end, Carba1 or FK866 (positive control of NAMPT binding) was first incubated with NAMPT or carbonic anhydrase (CA; negative control). Protein-ligand complexes were separated from the unbound compounds by size exclusion chromatography (SEC). To quantify the protein-bound fraction, the complexes were then dissociated using reverse-phase chromatography, and the compounds were analyzed and quantified by mass spectrometry. By comparing the amounts of compound before (preSEC) and after (postSEC) SEC in the presence of CA or NAMPT, we assessed their ability to selectively bind to NAMPT.
# (§2) AS-MS was used to assess compound binding to NAMPT. AS-MS was performed by Edelris SAS (www.edelris.com/), which has developed the commercial AS-MS service “EDEN platform,” based on ([71]). Conditions consisted of protein (NAMPT and CA) at 3 μM and compounds (Carba1 and FK866) at 10 μM dissolved in corporate buffer.
# HeLa cells [2] = assay: NAD(P)H autofluorescence imaging in live HeLa cells; type: cell-based, human; details: 5 and 10 nM FK866, 24-hour incubation
# Procedure: HeLa cells were seeded in four-chamber Labtek plates at 10,000 cells per well. After 48 hours, cells were preincubated with or without 12 μM Carba1 for 2 hours before addition of FK866 (5 and 10 nM). Drugs were added to phenol red–free DMEM medium, supplemented with 10% FBS 1% penicillin/streptomycin. After 24 hours of drug incubation, cells were imaged using a confocal microscope (LSM 710, Zeiss) with a two-photon excitation at 700 nm (Chameleon Vision Laser, Coherent) and a 40×/1.2 water-immersion objective. Detection was performed in single-photon mode using an avalanche photodiode detector (ConfoCor 3). NAD(P)H signal intensity was quantified as the mean signal per cell using ImageJ and normalized to the cell area.
# NAMPT [3] = target: T1, NAMPT (Homo sapiens, UniProt P43490); assay: AS-MS binding assay, NAMPT; details: 10 μM compound, 3 μM NAMPT
# Procedure: as §1, with “spectrometry.” for “spectrometry. By comparing the amounts of compound before (preSEC) and after (postSEC) SEC in the presence of CA or NAMPT, we assessed their ability to selectively bind to NAMPT.”
# as §2
# Target sequence in this assay (P43490 whole entry, species assumed): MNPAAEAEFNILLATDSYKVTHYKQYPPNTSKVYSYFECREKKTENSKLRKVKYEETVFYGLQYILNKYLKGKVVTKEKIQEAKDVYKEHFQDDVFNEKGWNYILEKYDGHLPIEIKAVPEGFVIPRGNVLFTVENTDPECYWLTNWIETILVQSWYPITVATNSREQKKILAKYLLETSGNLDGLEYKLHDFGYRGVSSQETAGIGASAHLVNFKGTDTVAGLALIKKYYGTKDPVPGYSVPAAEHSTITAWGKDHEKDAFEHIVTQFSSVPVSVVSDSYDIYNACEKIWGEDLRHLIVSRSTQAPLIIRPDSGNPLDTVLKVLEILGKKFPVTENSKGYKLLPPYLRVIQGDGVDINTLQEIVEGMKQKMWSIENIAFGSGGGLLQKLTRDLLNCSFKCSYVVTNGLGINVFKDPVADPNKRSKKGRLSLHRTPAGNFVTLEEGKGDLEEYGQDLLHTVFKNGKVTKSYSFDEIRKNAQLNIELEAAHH
# NAMPT [4] = target: T1, NAMPT; assay: NAMPT activity assay (coupled recombinant enzyme kit); type: biochemical; parameters: purchased Abcam ab221819; details: OD450 at 60 min, normalized by subtraction of DMSO value
# From the text: We next tested whether Carba1 could activate NAMPT in vitro. To that aim, we used a commercial recombinant human enzyme assay containing four enzymes: NAMPT, NAM nucleotide adenylyltransferase 1 (NMNAT1), alcohol dehydrogenase (ADH), and diaphorase (see Materials and Methods). In the presence of NAM and 5-phosphoribosyl-1-pyrophosphate (PRPP), NAMPT converts NAM to NMN, which is then converted into NAD^+ by NMNAT1, while ADH converts NAD^+ to NADH. Then, into a coupled-reaction, diaphorase converts NADH into NAD^+ and tetrazolium salt WST-1 {4-[3-(4-iodophenyl)-2-(4-nitro-phenyl)-2H-5-tetrazolio]-1,3-benzene sulfonate} to formazan, which can be detected at optical density at 450 nm (OD450). In practice, we proceeded in two steps. First, Carba1 and the different tested compounds were incubated for 15 min with NAMPT, NMNAT1, NAM, and PRPP to allow NAD^+ production. The reaction was then stopped with FK866 before adding ADH and diaphorase to convert the NAD^+ produced to NADH, and absorbance was monitored at regular intervals.
# NAMPT activity was measured using the commercial kit, NAMPT Activity Assay, according to the manufacturer’s instructions. […] A mixture of water-soluble tetrazolium salts (WST-1), ADH, diaphorase, and ethanol was added and the absorbance (OD450) measured for 90 min using the microplate reader ClarioSTAR (BMG Labtech).
# Target sequence in this assay (P43490 whole entry): as the sequence (P43490 whole entry, species assumed) above
# [5] = tested on: HeLa cells xenografted in mice; assay: HeLa tumor xenograft in nude mice; type: in vivo; details: i.v. every 2 days, PTX 8 mg/kg, Carba1 60 mg/kg alone or with PTX
# Procedure: Five-week-old NMRI nude mice (Janvier Labs) were implanted with 10 × 10^6 HeLa cells (200 μl in PBS) on the right flank. On day 6, the mean tumor volume was 120 ± 4 mm^3. […] Behavior and signs of pain were monitored daily. Body weight and tumor volume were measured two to three times per week using electronic calipers, with tumor volume (in cubic millimeters) calculated as length (millimeters)/2 × width^2 (square millimeters). Tumor growth inhibition was analyzed using GraphPad Prism with one-way analysis of variance (ANOVA) and Dunn’s multiple comparisons test for treatment versus vehicle. Mice were euthanized on day 20, when the vehicle group reached ethical limits. Blood samples were collected by intracardiac puncture in EDTA-coated tubes for differential blood counts and hemograms, outsourced to IDEXX BioAnalytics. For biochemical analysis, blood was collected in heparin-lithium tubes, and plasma was isolated by centrifugation and frozen at −80°C. Plasma was analyzed using MS Scan II (Melet Schloesing) and VET16 reagent rotors to measure markers of renal and hepatic function, metabolism, and nutritional and muscular status. Differential counts, hemograms, and biochemical data were analyzed with GraphPad Prism using Kruskal-Wallis test and Dunn’s multiple comparisons test.
# DRG explants = assay: Mouse embryonic 3D DRG explants: axonal degeneration and myelination (MBP/TUBB3); type: cell-based; details: 72 h; Carba1 12 μM or PTX 500 nM
# Procedure: Embryonic DRG 3D explants were prepared from E13.5 mouse embryos and seeded at one explant/1.9 cm^2 on acid-treated, Matrigel-coated glass coverslips ([64], [65]). Explants were cultured at 37°C under 5% CO2 and high saturated in humidity. From DIV 0 to DIV 3, cultures were maintained in C-medium supplemented with 10% FBS, 1× GlutaMAX, D-glucose (4 g/liter), 2.5S nerve growth factor (NGF; 50 ng/ml), and 1% penicillin/streptomycin. From DIV 3 to DIV 7, neurobasal medium supplemented with 1× B27, 1× GlutaMAX, D-glucose (4 g/liter), 2.5S NGF (50 ng/ml), and 1% penicillin/streptomycin was used to promote axon development. From DIV 7 onward, differentiation medium [C-medium supplemented with 5 μM forskolin, ascorbic acid (50 μg/ml), and heparin (25 μg/ml)] was used to support glial cell maturation and myelination, with medium changes occurring every 2 days.
# DRGs were fixed with 10% formalin for 20 min at R.T., washed with PBS, and permeabilized for 10 min with PBS–0.1% Triton X-100. Blocking was performed using a solution of 3% bovine serum albumin (BSA), 0.1% glycine, and 5% goat preimmune serum in PBS for 2 hours at R.T. DRGs were then washed in PBS and incubated overnight at 4°C with of anti-TUBB3 (1 μg/ml) and anti-MBP (1 μg/ml). After PBS washes, secondary antibodies (goat anti-mouse Alexa Fluor 488, 1:1000, and goat anti-rabbit Alexa Fluor 647, 1:1000) were applied for 1 hour at R.T. Explants were mounted with ProLong Gold antifade reagent with 4′,6-diamidino-2-phenylindole (DAPI).
# Images of random fields of DRG explants, fixed in 4% formaldehyde and immunostained for TUBB3 and MBP, were captured with consistent acquisition times across samples, using a Zeiss AxioImager M2 microscope, equipped with a Hamamatsu Orca R2 camera. Image analysis was performed using Fiji software. The images were thresholded using the default global autothreshold method. For each field, MBP^+ segments were counted and normalized to the TUBB3^+ area.
# PTX-induced neuropathy = assay: Rat model of PTX-induced peripheral neuropathy (von Frey, serum NfL, IENFD); type: in vivo
# Procedure: Control animals received an equivalent volume of the vehicle (cremophor EL:ethanol, 1:1) diluted 1:4 in 0.9% NaCl.
# Carba1 was injected intraperitoneally six times (50 mg/kg) on days 0, 1, 2, 4, 7, and 9, resulting in a cumulative dose of 300 mg/kg (Fig. 2F). For each injection, Carba1 was injected intraperitoneally at 50 mg/kg on days 0, 1, 2, 4, 7, and 9, for a cumulative dose of 300 mg/kg, using a stock solution (150 mg/ml; cremophor EL:ethanol, 1:1) diluted to 50 mg/ml in 0.9% NaCl. Control animals for Carba1 received the same volume of the vehicle [cremophor EL:ethanol (1:1) diluted 1:3 in 0.9% NaCl]. […] To prevent cross-exposure through feces and urine, treatment groups were randomized by cage, with each cage housing three animals.
# Tactile allodynia, a common sensory disorder reported in animal models of CIPN ([56]), was assessed using an electronic von Frey test (Bioseb) ([68]). Rats were placed in plastic compartments on a wire floor and allowed to habituate for 15 min. […] The maximum force (in grams) causing withdrawal was recorded automatically. The average of two measurements, not differing by more than 10 g, was used as the nociceptive threshold ([68]). Rats were habituated to the compartments 3 days before the first injection, and the experimenter was blinded to treatment groups.
# Blood samples were collected on day 15 in vials with a clot activator, left at R.T. for up to 1 hour before centrifugation at 4100 rpm at 20°C for 10 min. Serum was then collected, aliquoted, and stored at −80°C until analysis. To reduce batch effects, serum samples were randomized on assay plates. NfL concentration was measured in the serum using commercial kits (Simple Plex Ella ProteinSimple, USA; Rat NfL Kit ProteinSimple) ([27]).
# Skin samples from both hind paws were fixed in 4% PFA overnight at 4°C, followed by sucrose cryoprotection (10, 20, and 30%) at 4°C overnight. After embedding in tissue freezing medium, the samples were at −80°C. Sections (20 μm) were cut using a cryostat at −17°C, washed with PBS for 5 min, and dried. The sections were blocked in PBS/0.2% Triton X-100/1%BSA for 1 hour and then incubated overnight at R.T. with anti-PGP9.5 antibody (1:400). After washing with PBS, sections were incubated with goat anti-rabbit Alexa Fluor488 secondary antibody for 2 hours, and the nuclei were stained with DAPI. Imaging was performed by acquiring 0.5 μm Z-stacks and exposure times for DAPI and fluorescein isothiocyanate set to 600 ms. Quantification followed the method described by Lauria et al. ([69]).
# adult mouse DRG neurons = assay: Axonal degeneration index in dissociated adult mouse DRG neurons; details: DIV 12 neurons, 72 h; Carba1 12 μM, PTX 50 nM, Cis 10 μM, Bort 100 nM
# Procedure: After 4 days in vitro (DIV), at least 30% of medium was changed, and 10 μM AraC (cytosine β-D-arabino furanoside) was added to suppress nonneuronal growth. […] Neurons were fixed with 4% paraformaldehyde (PFA), washed with PBS, permeabilized with PBS–0.01% Triton X-100 for 15 min, and blocked with PBS–10% FBS for 1 hour before being stained overnight at 4°C with neurofilament antibody. Following PBS washes, secondary antibody (goat anti-chicken Alexa Fluor 488) was applied for 2 hours at room temperature (R.T.). Following additional PBS washes, coverslips were mounted with Fluoromount-G.
# Images of random fields of dissociated adult DRG neurons, immunostained with antineurofilament or anti-TUBB3 antibodies, were captured using a 20× objective lens (Olympus IX81) and a Sensicam QE monochrome camera (Cooke Corporation). Degeneration masks were generated on the basis of the method described by Gerdts et al. ([66]). Axonal degeneration was quantified by measuring the total axonal area and fragmented axonal area in the same field, using degeneration masks as shown in fig. […] Images were processed in Fiji using global autothresholding, binarization, and the particle analyzer module to detect fragments (20 to 10,000 pixels), as previously described ([17]). The degeneration index was calculated as the ratio of fragmented axonal area to total axonal area.
# [6] = rat serum, day 15, outliers removed
smiles,measurement,setting,value
"O=C(/C=C/c1cccnc1)NCCCCC1CCN(C(=O)c2ccccc2)CC1 [FK866, reference compound]",GI50,HeLa cells [1]; read-out: GI50 of FK866 alone,2.4 ± 0.09 nM
same,binding to CA (AS-MS),carbonic anhydrase (CA),neither FK866 nor Carba1 was found to bind CA
same,reduction of NAD(P)H production,HeLa cells [2],~ 20%
same,binding to NAMPT (AS-MS),NAMPT [3],recovered in the fraction containing NAMPT
"OC(CNc1ccccc1)Cn1c2ccc(Br)cc2c2cc(Br)ccc21 (stereo not shown) [Compound P7C3, reference compound]",relief of FK866 cytotoxicity,HeLa cells [1]; coadministration with FK866,unable to counteract the toxic effect of FK866
same,activation of NAMPT in vitro,NAMPT [4],No significant effect
"CC(=O)O[C@H]1C(=O)[C@@]2(C)[C@H]([C@H](OC(=O)c3ccccc3)[C@]3(O)C[C@H](OC(=O)[C@H](O)[C@@H](NC(=O)c4ccccc4)c4ccccc4)C(C)=C1C3(C)C)[C@]1(OC(C)=O)CO[C@@H]1C[C@@H]2O [PTX, paclitaxel, reference compound]",GI50,"HeLa cells [1]; 72 h, PrestoBlue, drug applied alone, read-out: GI50, drug alone",4.2 ± 0.4 nM
same,tumor size,[5],markedly reduced tumor size
same,"MBP staining (axonal myelination), agent alone",DRG explants,significant reduction in MBP staining
same,"IENFD, mean","PTX-induced neuropathy; rat hind paw biopsies, day 15",13.43 number/mm
same,"IENFD, median","PTX-induced neuropathy; rat hind paw biopsies, day 15",13.62 number/mm
same,"NfL, mean",PTX-induced neuropathy; [6],96.00 pg/mL
same,"NfL, median",PTX-induced neuropathy; [6],82.50 pg/mL
same,"tactile allodynia (paw withdrawal threshold, electronic von Frey), agent alone","PTX-induced neuropathy; rat, i.p., PTX 5 mg/kg x4 or Carba1 50 mg/kg x6",developed a tactile allodynia
same,"reduction of IENFD, agent alone","PTX-induced neuropathy; rat, vs controls",30%
same,"axonal fragmentation / degeneration, agent alone",adult mouse DRG neurons,induced robust axonal degeneration
